In ChEMBL document CHEMBL3734721 (J Med Chem, 2015):
≈ marks a conversion by molar mass, not a printed value.

Columns and labels:
Vasopressin V1a receptor = Vasopressin V1a receptor (Homo sapiens, UniProt P37288); experiment: Antagonist activity at human wild-type AVPR1A receptor expressed in CHO-K1 cells assessed as vassopressin-induced calcium by FDSS assay; type: functional, cell-based
[1] = biological target: 5-hydroxytryptamine receptor 7 (Homo sapiens, UniProt P34969); experiment: Agonist activity at human wild-type 5-HT7 receptor expressed in HEK cells assessed as cAMP by HTRF assay; type: functional, cell-based, HEK293
[2] = biological target: 5-hydroxytryptamine receptor 2A (Homo sapiens, UniProt P28223); experiment: Antagonist activity at human 5-HT2A receptor expressed in CHO-K1 cells assessed as seretonin-induced calcium level by FDSS assay; type: functional, cell-based
[3] = biological target: Muscarinic acetylcholine receptor M3 (Homo sapiens, UniProt P20309); experiment: Agonist activity at human wild-type M3 receptor expressed in CHO-K1 cells assessed as calcium level by FDSS assay; type: functional, cell-based
[4] = biological target: Beta-2 adrenergic receptor (Homo sapiens, UniProt P07550); experiment: Antagonist activity at human beta2 receptor expressed in CHO-K1 cells assessed as isoproterenol-induced cAMP level by HTRF assay; type: functional, cell-based
[5] = Log D of compound at pH 7.4 by chromotography; type: physicochemical; settings: buffer
D(1A) dopamine receptor = D(1A) dopamine receptor (Homo sapiens, UniProt P21728); experiment: Antagonist activity at human wild-type D1 receptor expressed in CHO cells assessed as dopamine-induced cAMP by HTRF assay; type: functional, cell-based
[6] = biological target: T1, Cholecystokinin receptor type A (Homo sapiens, UniProt P32238); experiment: Antagonist activity at human wild-type CCKA receptor expressed in CHO-K1 cells assessed as CCK8-induced calcium by FDSS assay; type: functional, cell-based
T1 sequence (P32238 whole entry): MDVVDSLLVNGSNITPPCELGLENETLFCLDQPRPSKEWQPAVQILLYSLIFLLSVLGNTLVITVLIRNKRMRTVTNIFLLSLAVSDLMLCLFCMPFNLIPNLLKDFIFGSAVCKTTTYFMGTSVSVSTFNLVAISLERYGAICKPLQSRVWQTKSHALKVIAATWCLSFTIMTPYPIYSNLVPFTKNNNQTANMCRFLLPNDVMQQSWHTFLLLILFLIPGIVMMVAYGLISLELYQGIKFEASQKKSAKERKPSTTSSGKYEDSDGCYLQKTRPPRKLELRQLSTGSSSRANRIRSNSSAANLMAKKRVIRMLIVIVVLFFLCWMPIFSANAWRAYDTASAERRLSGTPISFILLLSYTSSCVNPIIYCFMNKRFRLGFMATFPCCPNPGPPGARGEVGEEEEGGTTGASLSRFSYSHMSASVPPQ

[7] = Kinetic solubility of compound in phosphate buffer at pH 7.4 for 4 hrs by UPLC/UV analysis; type: physicochemical; settings: read-out: Kinetic_solubility
[8] = Fraction unbound in rat plasma at 5 uM after 4.5 hrs by LC-MS/MS analysis; type: ADME, cell-free
[9] = biological target: T2, Alpha-2C adrenergic receptor (Homo sapiens, UniProt P18825); experiment: Agonist activity at human wild-type alpha 2C receptor expressed in CHO-K1 cells assessed as cAMP level by HTRF assay; type: functional, cell-based
T2 sequence (P18825 whole entry): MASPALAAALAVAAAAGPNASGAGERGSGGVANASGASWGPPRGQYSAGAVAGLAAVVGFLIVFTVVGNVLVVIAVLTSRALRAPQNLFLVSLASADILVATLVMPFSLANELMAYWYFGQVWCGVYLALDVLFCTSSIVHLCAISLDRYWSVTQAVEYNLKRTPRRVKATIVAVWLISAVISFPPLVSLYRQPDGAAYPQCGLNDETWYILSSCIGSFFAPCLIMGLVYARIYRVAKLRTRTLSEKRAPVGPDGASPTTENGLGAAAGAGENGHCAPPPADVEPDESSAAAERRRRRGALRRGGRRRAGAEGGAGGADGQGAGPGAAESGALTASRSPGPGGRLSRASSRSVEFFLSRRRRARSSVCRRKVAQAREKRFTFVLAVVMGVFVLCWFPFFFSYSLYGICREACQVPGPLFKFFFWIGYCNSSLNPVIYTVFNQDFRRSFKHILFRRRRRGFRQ

[10] = biological target: T1, Cholecystokinin receptor type A; experiment: Agonist activity at human wild-type CCKA receptor expressed in CHO-K1 cells assessed as calcium level by FDSS assay; type: functional, cell-based
[11] = Fraction unbound in rat brain at 5 uM after 5 hrs by LC-MS/MS analysis; type: ADME, tissue-based
Adenosine receptor A2a = Adenosine receptor A2a (Homo sapiens, UniProt P29274); experiment: Agonist activity at human wild-type A2A receptor expressed in CHO-K1 cells assessed as cAMP level by HTRF assay; type: functional, cell-based
[12] = biological target: T3, Type-1 angiotensin II receptor (Homo sapiens, UniProt P30556); experiment: Agonist activity at human wild-type AGTR1 receptor expressed in CHO-K1 cells assessed as calcium level by FDSS assay; type: functional, cell-based
T3 sequence (P30556 whole entry): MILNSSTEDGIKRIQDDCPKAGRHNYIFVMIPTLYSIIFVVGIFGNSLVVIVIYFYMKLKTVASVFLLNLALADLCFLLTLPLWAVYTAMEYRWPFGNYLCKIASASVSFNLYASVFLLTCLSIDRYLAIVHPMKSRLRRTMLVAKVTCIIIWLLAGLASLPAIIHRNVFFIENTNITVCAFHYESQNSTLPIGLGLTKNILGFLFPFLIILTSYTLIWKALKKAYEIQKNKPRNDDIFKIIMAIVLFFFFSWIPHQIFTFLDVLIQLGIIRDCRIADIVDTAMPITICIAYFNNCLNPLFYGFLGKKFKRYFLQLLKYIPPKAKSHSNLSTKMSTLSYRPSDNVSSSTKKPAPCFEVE

[13] = Fraction unbound in mouse plasma at 5 uM after 4.5 hrs by LC-MS/MS analysis; type: ADME, cell-free
Cytochrome P450 2C8 = biological target: T4, Cytochrome P450 2C8 (Homo sapiens, UniProt P10632); experiment: Inhibition of human CYP2C8 by LC-MS analysis; type: ADME
T4 sequence (P10632 whole entry): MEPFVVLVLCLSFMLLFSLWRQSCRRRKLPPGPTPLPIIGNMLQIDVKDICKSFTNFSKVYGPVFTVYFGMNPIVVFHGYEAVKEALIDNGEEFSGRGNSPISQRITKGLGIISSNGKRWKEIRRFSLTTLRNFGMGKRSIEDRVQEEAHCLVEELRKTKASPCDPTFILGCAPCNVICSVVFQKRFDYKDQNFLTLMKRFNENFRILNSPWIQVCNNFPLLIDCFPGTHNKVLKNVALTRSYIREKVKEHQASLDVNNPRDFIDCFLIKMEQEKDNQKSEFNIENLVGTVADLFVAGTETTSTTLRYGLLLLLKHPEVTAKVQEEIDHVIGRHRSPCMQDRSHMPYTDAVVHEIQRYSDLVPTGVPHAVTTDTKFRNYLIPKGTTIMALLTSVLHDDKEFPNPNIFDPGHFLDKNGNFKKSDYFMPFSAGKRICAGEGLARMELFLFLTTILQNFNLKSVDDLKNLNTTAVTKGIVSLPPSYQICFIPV

[14] = Chemical stability of compound in 0.1N NaOH assessed as compound remaining at 10 mg/ml after 1 day; type: physicochemical; settings: read-out: Stability
[15] = biological target: 5-hydroxytryptamine receptor 2B (Homo sapiens, UniProt P41595); experiment: Agonist activity at human 5-HT2B receptor expressed in CHO-K1 cells assessed as calcium level by FDSS assay; type: functional, cell-based
Sequence of 5-hydroxytryptamine receptor 2B (P41595 whole entry): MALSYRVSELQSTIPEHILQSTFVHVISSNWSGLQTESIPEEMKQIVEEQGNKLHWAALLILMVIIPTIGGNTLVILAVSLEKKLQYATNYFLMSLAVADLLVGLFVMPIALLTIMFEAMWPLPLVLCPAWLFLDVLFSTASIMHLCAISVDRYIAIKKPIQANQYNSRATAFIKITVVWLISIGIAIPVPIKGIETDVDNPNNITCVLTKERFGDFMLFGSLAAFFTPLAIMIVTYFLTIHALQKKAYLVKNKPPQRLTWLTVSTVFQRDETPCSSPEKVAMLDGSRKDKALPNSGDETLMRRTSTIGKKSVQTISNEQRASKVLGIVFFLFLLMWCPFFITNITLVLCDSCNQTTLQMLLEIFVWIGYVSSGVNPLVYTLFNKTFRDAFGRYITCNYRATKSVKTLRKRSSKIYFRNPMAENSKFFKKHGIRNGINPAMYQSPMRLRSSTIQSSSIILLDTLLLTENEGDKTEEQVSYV

Sequence of D(1A) dopamine receptor (P21728 whole entry): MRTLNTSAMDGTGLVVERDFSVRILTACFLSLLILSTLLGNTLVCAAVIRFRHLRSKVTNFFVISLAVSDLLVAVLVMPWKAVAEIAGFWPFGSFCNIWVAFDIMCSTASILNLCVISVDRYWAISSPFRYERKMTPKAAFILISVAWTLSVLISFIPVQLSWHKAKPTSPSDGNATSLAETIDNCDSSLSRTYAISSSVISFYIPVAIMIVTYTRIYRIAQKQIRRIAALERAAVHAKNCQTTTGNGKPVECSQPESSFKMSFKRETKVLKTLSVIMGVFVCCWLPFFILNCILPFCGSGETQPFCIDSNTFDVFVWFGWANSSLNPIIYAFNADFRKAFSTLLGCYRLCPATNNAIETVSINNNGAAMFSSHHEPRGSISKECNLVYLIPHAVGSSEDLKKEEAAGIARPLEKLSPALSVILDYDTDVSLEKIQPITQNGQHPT
Sequence of 5-hydroxytryptamine receptor 2A (P28223 whole entry): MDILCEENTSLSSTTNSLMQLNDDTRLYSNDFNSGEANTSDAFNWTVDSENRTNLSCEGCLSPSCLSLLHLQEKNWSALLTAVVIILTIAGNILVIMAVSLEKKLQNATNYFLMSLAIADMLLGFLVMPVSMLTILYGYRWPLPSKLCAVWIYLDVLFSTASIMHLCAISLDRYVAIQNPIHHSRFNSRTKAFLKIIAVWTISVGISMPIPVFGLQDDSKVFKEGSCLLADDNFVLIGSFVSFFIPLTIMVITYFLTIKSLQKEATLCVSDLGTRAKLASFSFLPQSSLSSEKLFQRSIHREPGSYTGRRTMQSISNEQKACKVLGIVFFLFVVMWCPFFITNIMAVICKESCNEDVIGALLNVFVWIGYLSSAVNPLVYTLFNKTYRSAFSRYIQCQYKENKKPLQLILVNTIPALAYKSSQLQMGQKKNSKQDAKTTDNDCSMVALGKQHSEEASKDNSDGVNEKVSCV
Sequence of 5-hydroxytryptamine receptor 7 (P34969 whole entry): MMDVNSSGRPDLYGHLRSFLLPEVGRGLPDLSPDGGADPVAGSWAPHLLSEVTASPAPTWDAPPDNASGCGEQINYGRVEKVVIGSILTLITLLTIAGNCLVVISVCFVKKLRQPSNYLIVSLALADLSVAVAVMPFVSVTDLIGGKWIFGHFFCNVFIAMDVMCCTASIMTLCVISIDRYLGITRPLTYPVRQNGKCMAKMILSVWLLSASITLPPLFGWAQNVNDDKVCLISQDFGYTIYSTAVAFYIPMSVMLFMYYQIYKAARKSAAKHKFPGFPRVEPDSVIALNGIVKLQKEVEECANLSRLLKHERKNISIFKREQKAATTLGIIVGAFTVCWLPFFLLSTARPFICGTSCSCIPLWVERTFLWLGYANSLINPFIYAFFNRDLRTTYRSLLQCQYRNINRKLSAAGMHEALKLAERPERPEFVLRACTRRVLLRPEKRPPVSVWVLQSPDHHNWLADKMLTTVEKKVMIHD
Sequence of Beta-2 adrenergic receptor (P07550 whole entry): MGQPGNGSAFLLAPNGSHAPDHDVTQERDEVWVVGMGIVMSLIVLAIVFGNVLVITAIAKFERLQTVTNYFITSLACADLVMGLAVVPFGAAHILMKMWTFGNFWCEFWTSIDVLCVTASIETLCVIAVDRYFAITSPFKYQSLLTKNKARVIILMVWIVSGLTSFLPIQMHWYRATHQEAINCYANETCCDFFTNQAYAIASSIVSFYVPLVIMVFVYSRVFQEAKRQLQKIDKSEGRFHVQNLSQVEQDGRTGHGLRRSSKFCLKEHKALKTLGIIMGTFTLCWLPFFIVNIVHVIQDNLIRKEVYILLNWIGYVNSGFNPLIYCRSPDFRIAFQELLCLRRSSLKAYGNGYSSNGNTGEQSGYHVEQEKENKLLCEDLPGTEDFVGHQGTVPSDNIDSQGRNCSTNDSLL
Sequence of Vasopressin V1a receptor (P37288 whole entry): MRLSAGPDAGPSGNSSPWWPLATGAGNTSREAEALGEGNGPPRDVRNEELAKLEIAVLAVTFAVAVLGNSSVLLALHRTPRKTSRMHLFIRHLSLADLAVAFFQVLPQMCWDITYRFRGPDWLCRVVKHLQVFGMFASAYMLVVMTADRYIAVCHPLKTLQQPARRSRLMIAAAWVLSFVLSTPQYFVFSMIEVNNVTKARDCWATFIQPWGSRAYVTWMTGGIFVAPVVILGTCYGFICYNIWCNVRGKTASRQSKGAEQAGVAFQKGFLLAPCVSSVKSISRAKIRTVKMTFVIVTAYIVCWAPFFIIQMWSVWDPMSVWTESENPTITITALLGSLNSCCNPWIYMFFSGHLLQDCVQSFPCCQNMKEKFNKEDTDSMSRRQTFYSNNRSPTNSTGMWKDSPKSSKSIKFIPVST
Sequence of Muscarinic acetylcholine receptor M3 (P20309 whole entry): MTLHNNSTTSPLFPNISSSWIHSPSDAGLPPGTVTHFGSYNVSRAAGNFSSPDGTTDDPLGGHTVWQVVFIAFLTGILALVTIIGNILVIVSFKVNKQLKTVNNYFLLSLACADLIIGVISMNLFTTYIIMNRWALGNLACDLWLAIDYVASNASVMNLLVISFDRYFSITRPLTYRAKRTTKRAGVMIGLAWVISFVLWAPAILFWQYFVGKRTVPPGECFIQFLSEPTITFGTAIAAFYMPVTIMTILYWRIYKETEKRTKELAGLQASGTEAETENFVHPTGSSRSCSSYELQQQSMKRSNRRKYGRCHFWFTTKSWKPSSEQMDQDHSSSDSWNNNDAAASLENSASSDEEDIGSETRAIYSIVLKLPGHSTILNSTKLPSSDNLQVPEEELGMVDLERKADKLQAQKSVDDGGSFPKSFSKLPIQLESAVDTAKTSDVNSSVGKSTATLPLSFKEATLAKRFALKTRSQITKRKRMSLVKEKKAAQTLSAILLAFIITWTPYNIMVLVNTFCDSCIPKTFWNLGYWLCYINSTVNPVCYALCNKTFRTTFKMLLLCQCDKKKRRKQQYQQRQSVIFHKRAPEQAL
Sequence of Adenosine receptor A2a (P29274 whole entry): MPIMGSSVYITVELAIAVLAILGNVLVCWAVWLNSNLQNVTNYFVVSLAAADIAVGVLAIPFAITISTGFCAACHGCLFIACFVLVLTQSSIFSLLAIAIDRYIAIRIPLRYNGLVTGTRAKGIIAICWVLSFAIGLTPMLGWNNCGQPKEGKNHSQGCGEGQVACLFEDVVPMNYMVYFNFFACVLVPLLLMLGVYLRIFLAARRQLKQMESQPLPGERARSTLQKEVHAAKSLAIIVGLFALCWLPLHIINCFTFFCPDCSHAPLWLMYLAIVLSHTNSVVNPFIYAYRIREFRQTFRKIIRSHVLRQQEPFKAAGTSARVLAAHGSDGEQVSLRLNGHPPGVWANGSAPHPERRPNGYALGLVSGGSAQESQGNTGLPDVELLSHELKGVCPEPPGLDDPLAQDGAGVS

| IC50 (Vasopressin V1a receptor) | EC50 [1] | IC50 [2] | EC50 [3] | IC50 [4] | chromatographic logD [5] | IC50 (D(1A) dopamine receptor) | IC50 [6] | solubility kinetic at 4 h [7] | fraction unbound at 4.5 h, 5 µM [8] | EC50 [9] | EC50 [10] | fraction unbound at 5 h, 5 µM [11] | EC50 (Adenosine receptor A2a) | EC50 [12] | fraction unbound at 4.5 h, 5 µM [13] | IC50 (Cytochrome P450 2C8) | remaining at 24 h, 10 mg/ml [14] | EC50 [15] | Compound |
| --- | --- | --- | --- | --- | --- | --- | --- | --- | --- | --- | --- | --- | --- | --- | --- | --- | --- | --- | --- |
| > 5.01 µM | > 5.01 µM | > 5.01 µM | > 5.01 µM | 0.501 µM | 2.31 | > 5.01 µM | > 5.01 µM | 699 µM (≈ 192 µg/mL) | 0.096 | > 5.01 µM | > 5.01 µM | 0.0055 | > 5.01 µM | > 5.01 µM | 0.074 | > 10 µM | 88% | > 5.01 µM | CB1C=Cc2cccc(OCC(O)CNC(C)C)c2N1 (stereo not drawn) |
| > 5.01 µM | > 5.01 µM | > 5.01 µM | > 5.01 µM | 0.1 µM | 1.81 | > 5.01 µM | > 5.01 µM | 647 µM (≈ 168 µg/mL) | 0.29 | > 5.01 µM | > 5.01 µM | 0.019 | > 5.01 µM | > 5.01 µM | 0.21 | > 10 µM | 89% | > 5.01 µM | CB1C=Cc2c(cccc2OCC(O)CN(C)C)N1 (stereo not drawn) |
